For orientation: IC50 means the concentration at which inhibition is half-maximal.

The structures appear in SMILES notation.

For 6 compounds, IC50 results are on record in patent US20100267725A1, “Compounds, Compositions and Methods Comprising 4N-Substituted Triazole Derivatives” (Institute for OneWorld Health, priority 2009, published 2010).

The target in this assay is T1, CFTR channel (Homo sapiens, UniProt P13569).
T1 construct: host or cells: Human colonic T84 cells
T1 sequence (P13569 whole entry): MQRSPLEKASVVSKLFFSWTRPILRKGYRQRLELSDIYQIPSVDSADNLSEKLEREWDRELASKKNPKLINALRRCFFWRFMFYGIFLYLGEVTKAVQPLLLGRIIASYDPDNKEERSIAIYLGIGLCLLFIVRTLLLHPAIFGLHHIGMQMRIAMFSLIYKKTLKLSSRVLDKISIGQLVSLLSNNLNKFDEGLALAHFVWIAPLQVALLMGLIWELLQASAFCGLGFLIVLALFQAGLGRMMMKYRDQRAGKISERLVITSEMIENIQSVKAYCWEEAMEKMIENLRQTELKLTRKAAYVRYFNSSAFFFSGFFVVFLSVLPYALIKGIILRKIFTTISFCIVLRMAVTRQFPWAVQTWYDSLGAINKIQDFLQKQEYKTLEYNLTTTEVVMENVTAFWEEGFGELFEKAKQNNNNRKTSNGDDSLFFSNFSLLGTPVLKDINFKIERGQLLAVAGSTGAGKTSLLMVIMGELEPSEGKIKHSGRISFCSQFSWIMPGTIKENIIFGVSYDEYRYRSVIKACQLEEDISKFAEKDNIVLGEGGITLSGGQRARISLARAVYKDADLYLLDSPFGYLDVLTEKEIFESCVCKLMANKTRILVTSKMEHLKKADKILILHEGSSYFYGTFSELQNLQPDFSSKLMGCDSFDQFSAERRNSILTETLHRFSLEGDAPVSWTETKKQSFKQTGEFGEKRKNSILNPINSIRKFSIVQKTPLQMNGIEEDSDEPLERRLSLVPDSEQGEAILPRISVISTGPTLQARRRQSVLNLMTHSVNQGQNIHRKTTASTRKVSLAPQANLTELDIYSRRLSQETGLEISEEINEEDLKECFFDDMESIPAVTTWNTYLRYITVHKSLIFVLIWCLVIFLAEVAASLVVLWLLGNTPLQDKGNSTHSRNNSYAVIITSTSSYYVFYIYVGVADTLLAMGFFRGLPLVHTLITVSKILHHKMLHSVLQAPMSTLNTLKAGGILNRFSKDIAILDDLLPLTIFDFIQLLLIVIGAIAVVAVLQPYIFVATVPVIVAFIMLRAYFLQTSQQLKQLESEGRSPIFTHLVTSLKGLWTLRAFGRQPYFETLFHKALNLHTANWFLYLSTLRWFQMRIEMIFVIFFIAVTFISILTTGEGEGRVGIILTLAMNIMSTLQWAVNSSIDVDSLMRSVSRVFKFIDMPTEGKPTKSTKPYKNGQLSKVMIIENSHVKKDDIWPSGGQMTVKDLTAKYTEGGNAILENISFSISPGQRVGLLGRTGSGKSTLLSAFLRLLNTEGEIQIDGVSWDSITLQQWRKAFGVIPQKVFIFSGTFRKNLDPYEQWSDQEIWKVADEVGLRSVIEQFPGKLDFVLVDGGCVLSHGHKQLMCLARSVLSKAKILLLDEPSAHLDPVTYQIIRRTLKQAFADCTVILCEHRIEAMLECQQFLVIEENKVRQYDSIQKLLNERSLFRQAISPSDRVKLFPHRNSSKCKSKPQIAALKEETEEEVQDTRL
The assay can be described thus: T84 assay (FLIPR membrane potential dye, forskolin/IBMX-stimulated CFTR channel activity). It is filed as cell-based. Conditions: Human colonic T84 cells; CFTR stimulated with 10 μM forskolin + 100 μM IBMX. As to the method: (§1) For example, Human colonic T84 cells can be acquired from the European Collection of Cell Cultures (ECACC) and grown in standard culture conditions as described by the supplier. On the day before assay 25,000 T84 cells per well are plated into standard black walled, clear bottom 384-well assay plates in standard growth medium consisting of DMEM:F12 with 10% FBS and incubated overnight. On the day of the assay the plates are washed using a standard assay buffer (HBSS with 10 mM Hepes) and incubated for 15 minutes in serum free cell culture medium before the addition of a commercially available membrane potential sensitive fluorescent dye (FLIPR Red membrane potential dye, Molecular Devices Corporation). T84 cells are incubated with the FLIPR Red membrane potential dye for 45 minutes in the presence and absence of test compound before being transferred to a commercially available fluorescence imaging plate reader (FLIPR384, Molecular Devices Corporation). Fluorescence levels are monitored continuously every second for 150 seconds; after an initial 10 second baseline, CFTR channel activity is stimulated through the addition of 10 μM forskolin in the presence of 100 μM of the phosphodiesterase inhibitor iso-butyl-methylxanthine (IBMX). Addition of the forskolin leads to the activation of intracellular adenylyl cylase 1, elevating cAMP levels and results in the phosphorylation and opening of CFTR anion channels. CFTR channel opening causes chloride ion efflux and subsequent depolarization of the cells, which is measured by an increase in fluorescence. CFTR inhibitor compounds prevent cell depolarization and the associated increase in fluorescence.
as §1, with “Human colonic” for “For example, Human colonic”, “T84 cells are acquired from” for “T84 cells can be acquired from”, “(ECACC) and are grown in” for “(ECACC) and grown in”
For the compound `O=C(NCc1ccc(Oc2ccccc2)cc1)c1nnc(-c2cc(Cl)c(O)c(Cl)c2)n1Cc1ccccc1` [Compound 1, 4-benzyl-5-(3,5-dichloro-4-hydroxyphenyl)-N-(4-phenoxybenzyl)-4H-1,2,4-triazole-3-carboxamide], the IC50 is 7.14 µM.
For `CN(C)c1cccc(Cn2c(C(=O)NCc3ccc(Oc4ccccc4)cc3)nnc2-c2cc(Cl)c(O)c(Cl)c2)c1` [Compound 2, 5-(3,5-dichloro-4-hydroxyphenyl)-4-(3-(dimethylamino)benzyl)-N-(4-phenoxybenzyl)-4H-1,2,4-triazole-3-carboxamide], the IC50 stood at 6.69 µM.
On to `O=C(NCc1ccc(Oc2ccccc2)cc1)c1nnc(-c2cc(Cl)c(O)c(Cl)c2)n1Cc1cccnc1` [Compound 3, 5-(3,5-Dichloro-4-hydroxyphenyl)-N-(4-phenoxybenzyl)-4-(pyridin-3-ylmethyl)-4H-1,2,4-triazole-3-carboxamide], for which the IC50 was found to be 7.18 µM.
Take `O=C(NCc1ccc(Oc2ccccc2)cc1)c1nnc(-c2cc(Cl)c(O)c(Cl)c2)n1Cc1ccccn1` [Compound 4, 5-(3,5-dichloro-4-hydroxyphenyl)-N-(4-phenoxybenzyl)-4-(pyridin-2-ylmethyl)-4H-1,2,4-triazole-3-carboxamide]: the IC50 is 12.9 µM.
`COc1ccc(-n2c(C(=O)NCc3ccc(Oc4ccccc4)cc3)nnc2-c2cc(Cl)c(O)c(Cl)c2)cn1` [Compound 5, 5-(3,5-dichloro-4-hydroxyphenyl)-4-(6-methoxypyridin-3-yl)-N-(4-phenoxybenzyl)-4H-1,2,4-triazole-3-carboxamide]: the IC50 was 7.74 µM.
Take `O=C(NCc1ccc(Oc2ccccc2)cc1)c1nnc(-c2cc(Cl)c(O)c(Cl)c2)n1Cc1ccc(CN2CCOCC2)cc1` [Compound 6, 5-(3,5-dichloro-4-hydroxyphenyl)-4-(4-(morpholinomethyl)benzyl)-N-(4-phenoxybenzyl)-4H-1,2,4-triazole-3-carboxamide]: the IC50 amounted to 12.8 µM.
